Reference: patent US20230051589A1, “COMPOUNDS AND COMPOSITIONS FOR TREATING CONDITIONS ASSOCIATED WITH NLRP ACTIVITY” (Novartis AG, priority 2018, published 2023)

Test system: IL-1β production in PMA-differentiated THP-1 cells
Experiment: IL-1β production in PMA-differentiated THP-1 cells stimulated with gramicidin (hTHP-1 assay, 2% fetal bovine serum; Procedures 1-3)
Type: cell-based, human
Conditions: Homo sapiens, THP-1, Table B1; hTHP-1 assay containing 2% fetal bovine serum, gramicidin stimulation, IL-1β readout; read-out: hTHP-1 IC50 (average)
Summary of the method: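 IL-1β released into supernatants was read by HTRF after 2 h gramicidin (5 μM) challenge. Before challenge, compounds (3-fold dilutions, top 100 μM, 0.37% DMSO) were given 1 h on THP-1 cells differentiated with PMA (20 ng/ml, 16-18 h) and held in 2% FBS medium.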

IC50	SMILES
40 to 200 nM	CC(O)(CO)c1cc(F)c(S(N)(=O)=NC(=O)Nc2c3c(c(C#N)c4c2CCC4)CCC3)s1 (stereo not shown) [Compound 411]
40 to 200 nM	CNCc1cc(F)c(S(N)(=O)=NC(=O)Nc2c3c(cc4c2CCC4)CCC3)s1 (stereo not shown) [Compound 412]

Same assay, conditions: Homo sapiens, THP-1, hTHP-1 assay containing 2% fetal bovine serum, Table B2, class symbols; read-out: IC50

IC50	SMILES
8 to 40 nM	C[C@](O)(CO)c1ncc(S(N)(=O)=NC(=O)Nc2c3c(cc4c2CC4)CCC3)s1 (stereo partly shown) [919f^]
200 to 1000 nM	NS(=O)(=NC(=O)Nc1c2c(cc3c1CCC3)CCC2)c1ccc([C@@H]2CCCN2)s1 (stereo partly shown) [921f^]
200 to 1000 nM	N[S@@](=O)(=NC(=O)Nc1c2c(cc3c1CCC3)CCC2)c1ccc(C2CCN2)cc1 (stereo partly shown) [Compound 802a]
5000 to 30000 nM	N[S@](=O)(=NC(=O)Nc1c2c(cc3c1CCC3)CCC2)c1ccc([C@H]2CCN2)cc1 [Compound 802b]
5000 to 30000 nM	N[S@](=O)(=NC(=O)Nc1c2c(cc3c1CCC3)CCC2)c1ccc([C@@H]2CCN2)cc1 [Compound 802c]
200 to 1000 nM	CC(C)(O)c1ccc([S@](N)(=O)=NC(=O)Nc2c3c(cc4c2C(=O)CC4)CCC3)cn1 [Compound 804b]
1000 to 5000 nM	CC(C)(O)c1ccnc([S@](N)(=O)=NC(=O)Nc2c3c(c(C#N)c4c2CCC4)CCC3)c1 [Compound 818a]
200 to 1000 nM	CC(C)(O)c1ccnc([S@@](N)(=O)=NC(=O)Nc2c3c(c(C#N)c4c2CCC4)CCC3)c1 [Compound 818b]
5000 to 30000 nM	C[C@H](N[S@@](=O)(=NC(=O)Nc1c2c(cc3c1CCC3)CCC2)c1cnc(C(C)(C)O)s1)c1ccccc1 [Compound 887a]
1000 to 5000 nM	CN(C)Cc1ccc(S(N)(=O)=NC(=O)Nc2c3c(cc4c2CCC4)CCC3)s1 (stereo not shown) [Compound 889]
5000 to 30000 nM	CN(C)Cc1ccc([S@](N)(=O)=NC(=O)Nc2c3c(cc4c2CCC4)CCC3)s1 [Compound 889a]
200 to 1000 nM	CN(C)Cc1ccc([S@@](N)(=O)=NC(=O)Nc2c3c(cc4c2CCC4)CCC3)s1 [Compound 889b]
1000 to 5000 nM	CN(Cc1ccc(S(N)(=O)=NC(=O)Nc2c3c(cc4c2CC4)CCC3)c(F)c1)C1CCC1 (stereo not shown) [Compound 891]
200 to 1000 nM	CC(NC1CCC1)c1ccc(S(N)(=O)=NC(=O)Nc2c3c(cc4c2CC4)CCC3)c(F)c1 (stereo not shown) [Compound 892]
40 to 200 nM	CC(C)(O)c1sc(S(N)(=O)=NC(=O)Nc2c3c(cc4c2CCC4)CCC3)nc1CO (stereo not shown) [Compound 893]
1000 to 5000 nM	CC(C)(O)c1cccc(S(N)(=O)=NC(=O)Nc2c3c(cc4c2CCC4)CCC3)n1 (stereo not shown) [Compound 895]
200 to 1000 nM	NS(=O)(=NC(=O)Nc1c2c(cc3c1CCC3)CCC2)c1sc(CNC2CCC2)cc1F (stereo not shown) [Compound 898]
5000 to 30000 nM	CN1CCC(c2ccc(S(N)(=O)=NC(=O)Nc3c4c(cc5c3CCC5)CCC4)c(F)c2)C1 (stereo not shown) [Compound 899]
40 to 200 nM	CC(C)(O)c1sc(S(N)(=O)=NC(=O)Nc2c3c(cc4c2CCC4)CCC3)cc1-c1ccccc1 (stereo not shown) [Compound 900]
1000 to 5000 nM	CN(C)CC(C)(C)c1ccc(S(N)(=O)=NC(=O)Nc2c3c(cc4c2CCC4)CCC3)cc1 (stereo not shown) [Compound 902]

IC50	SMILES
200 to 1000 nM	CN(C)CC(C)(C)c1ccc([S@@](N)(=O)=NC(=O)Nc2c3c(cc4c2CCC4)CCC3)cc1 [Compound 902b]
1000 to 5000 nM	CC(C)c1cnc(S(N)(=O)=NC(=O)Nc2c3c(cc4c2CCC4)CCC3)c(F)c1 (stereo not shown) [Compound 903]
200 to 1000 nM	CC(C)c1cnc([S@@](N)(=O)=NC(=O)Nc2c3c(cc4c2CCC4)CCC3)c(F)c1 [Compound 903a]
5000 to 30000 nM	CC(C)c1cnc([S@](N)(=O)=NC(=O)Nc2c3c(cc4c2CCC4)CCC3)c(F)c1 [Compound 903b]
200 to 1000 nM	CCn1ccc(S(N)(=O)=NC(=O)Nc2c3c(cc4c2CCC4)CCC3)n1 (stereo not shown) [Compound 904]
40 to 200 nM	CCn1ccc([S@](N)(=O)=NC(=O)Nc2c3c(cc4c2CCC4)CCC3)n1 [Compound 904a]
1000 to 5000 nM	CCn1ccc([S@@](N)(=O)=NC(=O)Nc2c3c(cc4c2CCC4)CCC3)n1 [Compound 904b]
1000 to 5000 nM	CC(C)n1nc(S(N)(=O)=NC(=O)Nc2c3c(cc4c2C(=O)CC4)CCC3)cc1CO (stereo not shown) [Compound 907]
200 to 1000 nM	CC(C)n1nc(S(N)(=O)=NC(=O)Nc2c3c(cc4c2C(=O)CC4)CCC3)cc1C(C)(C)O (stereo not shown) [Compound 908]
200 to 1000 nM	CC(C)n1nc([S@@](N)(=O)=NC(=O)Nc2c3c(cc4c2C(=O)CC4)CCC3)cc1C(C)(C)O [Compound 908b]
1000 to 5000 nM	CN1CCCC(c2ccc(S(N)(=O)=NC(=O)Nc3c4c(cc5c3CC5)CCC4)c(F)c2)C1 (stereo not shown) [Compound 911]
1000 to 5000 nM	CN1CCC[C@H](c2ccc([S@](N)(=O)=NC(=O)Nc3c4c(cc5c3CC5)CCC4)c(F)c2)C1 [Compound 911b]
1000 to 5000 nM	CN1CCC[C@@H](c2ccc([S@@](N)(=O)=NC(=O)Nc3c4c(cc5c3CC5)CCC4)c(F)c2)C1 [Compound 911d]
40 to 200 nM	CC(C)(CO)c1ncc(S(N)(=O)=NC(=O)Nc2c3c(c(C#N)c4c2CCC4)CCC3)s1 (stereo not shown) [Compound 913]
1000 to 5000 nM	CC(C)(CO)c1ncc([S@@](N)(=O)=NC(=O)Nc2c3c(c(C#N)c4c2CCC4)CCC3)s1 [Compound 913a]
40 to 200 nM	CC(C)(CO)c1ncc([S@](N)(=O)=NC(=O)Nc2c3c(c(C#N)c4c2CCC4)CCC3)s1 [Compound 913b]
1000 to 5000 nM	CC(C)(O)c1nc(CO)c(S(N)(=O)=NC(=O)Nc2c3c(cc4c2C(=O)CC4)CCC3)s1 (stereo not shown) [Compound 914]
5000 to 30000 nM	CC(C)(O)c1nc(CO)c([S@@](N)(=O)=NC(=O)Nc2c3c(cc4c2C(=O)CC4)CCC3)s1 [Compound 914a]
1000 to 5000 nM	CC(C)(O)c1nc(CO)c([S@](N)(=O)=NC(=O)Nc2c3c(cc4c2C(=O)CC4)CCC3)s1 [Compound 914b]

Same assay, conditions: Homo sapiens, THP-1, hTHP-1 assay containing 2% fetal bovine serum, Table B2, given as bound; read-out: IC50

IC50	SMILES
> 30000 nM	CC(C)(O)c1ccc([S@@](N)(=O)=NC(=O)Nc2c3c(cc4c2C(=O)CC4)CCC3)cn1 [Compound 804a]
> 30000 nM	C[C@H](N[S@](=O)(=NC(=O)Nc1c2c(cc3c1CCC3)CCC2)c1cnc(C(C)(C)O)s1)c1ccccc1 [Compound 887b]
> 30000 nM	CN(C)CC(C)(C)c1ccc([S@](N)(=O)=NC(=O)Nc2c3c(cc4c2CCC4)CCC3)cc1 [Compound 902a]
> 30000 nM	CC(C)n1nc([S@](N)(=O)=NC(=O)Nc2c3c(cc4c2C(=O)CC4)CCC3)cc1C(C)(C)O [Compound 908a]
> 30000 nM	CN1CCC[C@@H](c2ccc([S@](N)(=O)=NC(=O)Nc3c4c(cc5c3CC5)CCC4)c(F)c2)C1 [Compound 911a]
> 30000 nM	CN1CCC[C@H](c2ccc([S@@](N)(=O)=NC(=O)Nc3c4c(cc5c3CC5)CCC4)c(F)c2)C1 [Compound 911c]

Same assay, conditions: Table B3; hTHP-1 assay containing 2% fetal bovine serum, gramicidin stimulation, IL-1β readout; read-out: hTHP-1 IC50

IC50	SMILES
1000 to 5000 nM	CNCc1csc(S(N)(=O)=NC(=O)Nc2c3c(cc4c2CC4)CCC3)c1F (single isomer, unassigned) [Example 871, (S) or (R) -3-fluoro-4-((methylamino)methyl)-N′-((2,4,5,6-tetrahydro-1H-cyclobuta[f]inden-3-yl)carbamoyl)thiophene-2-sulfonimidamide]
1000 to 5000 nM	NS(=O)(=NC(=O)Nc1c2c(cc3c1CC3)CCC2)c1cc2c(s1)CCN(CC(F)F)C2 (single isomer, unassigned) [Example 872, (R) or (S) -5-(2,2-difluoroethyl)-N′-((2,4,5,6-tetrahydro-1H-cyclobuta[f]inden-3-yl)carbamoyl)-4,5,6,7-tetrahydrothieno[3,2-c]pyridine-2-sulfonimidamide]
> 30000 nM	NS(=O)(=NC(=O)Nc1c2c(cc3c1CC3)CCC2)c1cc2c(s1)CCN(CC(F)F)C2 (single isomer, unassigned) [Example 873, (S) or (R) -5-(2,2-difluoroethyl)-N′-((2,4,5,6-tetrahydro-1H-cyclobuta[f]inden-3-yl)carbamoyl)-4,5,6,7-tetrahydrothieno[3,2-c]pyridine-2-sulfonimidamide]
40 to 200 nM	NS(=O)(=NC(=O)Nc1c2c(cc3c1CC3)CCC2)c1cc2c(s1)CCN[C@@H]2C(F)F (single isomer, unassigned) [Example 874, (R or S,4S)-4-(difluoromethyl)-N′-((2,4,5,6-tetrahydro-1H-cyclobuta[f]inden-3-yl)carbamoyl)-4,5,6,7-tetrahydrothieno[3,2-c]pyridine-2-sulfonimidamide]
1000 to 5000 nM	NS(=O)(=NC(=O)Nc1c2c(cc3c1CC3)CCC2)c1cc2c(s1)CCN[C@@H]2C(F)F (single isomer, unassigned) [Example 875, (S or R,4S)-4-(difluoromethyl)-N′-((2,4,5,6-tetrahydro-1H-cyclobula[f]inden-3-yl)carbamoyl)-4,5,6,7-tetrahydrothieno[3,2-c]pyridine-2-sulfonimidamide]
40 to 200 nM	NS(=O)(=NC(=O)Nc1c2c(cc3c1CC3)CCC2)c1cc2c(s1)CCN[C@H]2C(F)F (single isomer, unassigned) [Example 876, (R or S,4R)-4-(difluoromethyl)-N′-((2,4,5,6-tetrahydro-1H-cyclobuta[f]inden-3-yl)carbamoyl)-4,5,6,7-tetrahydrothieno[3,2-c]pyridine-2-sulfonimidamide]
1000 to 5000 nM	NS(=O)(=NC(=O)Nc1c2c(cc3c1CC3)CCC2)c1cc2c(s1)CCN[C@H]2C(F)F (single isomer, unassigned) [Example 877, (S or R,4R)-4-(difluoromethyl)-N′-((2,4,5,6-tetrahydro-1H-cyclobuta[f]inden-3-yl)carbamoyl)-4,5,6,7-tetrahydrothieno[3,2-c]pyridine-2-sulfonimidamide]
200 to 1000 nM	CC(O)(CO)c1nc(CO)c(S(N)(=O)=NC(=O)Nc2c3c(cc4c2CCC4)CCC3)s1 (stereo in doubt) [Example 755, 2-((S)-1,2-dihydroxypropan-2-yl)-N′-((1,2,3,5,6,7-hexahydro-s-indacen-4-yl)carbamoyl)-4-(hydroxymethyl)thiazole-5-sulfonimidamide]
